Experimental data: PMC7822874, “Chemoprotective antimalarials identified through quantitative high-throughput screening of Plasmodium blood and liver stage parasites” (Scientific Reports, 2021)
Where two headings read alike, the source gives them in different places.

Key:
HepG2 = settings: human, hepg2 cells, 48 h
in vitro [1] = settings: human, hepg2 cells
[2] = system: P. falciparum Dd2 (clone B2) asexual blood stage parasites; test: P. falciparum Dd2 asexual blood stage SYBR Green-I 72 h proliferation assay (qHTS); type: cell-based, Plasmodium falciparum; settings: Plasmodium falciparum, DD2, Dd2 parental; Hill fit, averaged from three independent replicates; top concentration 29 µM; read-out: Average AC50 (Log[M]), Dd2 (converted)
[3] = system: P. falciparum Dd2 Cytb G131S; test: SYBR Green ABS proliferation assay, NCGC00374598 selected clone C11; type: cell-based, Plasmodium falciparum; settings: Plasmodium falciparum
Protocol: (§1) As resistance selection studies implicated the parasite cytochrome bc1 complex in mediating reduced parasite susceptibility to both NCGC00473217 and NCGC00374598, we leveraged these drug-selected parasites to test for altered drug response to a panel of antimalarial compounds.
(§2) The P. falciparum parasite Dd2 line was cultured in vitro using standard conditions. […] Tissue culture flasks and assay plates were incubated at 37 °C under a gas mixture of 5% CO2, 5% O2 and 90% N2. […] Significant differences were assessed using two-sided Student’s t-tests. All HTS assays were stopped and read at 72 h. Percent response values represent relative growth as judged by SYBR Green-I fluorescence intensity values normalized to controls.
(§3) Fresh uninfected RBCs (0.5% hematocrit) were added on day 7 and media was changed every other day. […] Resistant parasites were maintained under drug media at a volume of 50 mL until a high parasitemia (> 5%) was achieved. Aliquots of the bulk resistant cultures were frozen in cryovials before cloning by limiting dilution in 96-well plates (seeded at 0.25 or 0.5 parasites/well)[70]. After 3 weeks of cloning, we screened for positive wells by flow cytometry with SYBR Green-stained cells. […] Parasites were harvested by saponin lysis at the trophozoite stage and genomic DNA was extracted using the QIAamp DNA Blood Midi Kit (Qiagen, Germantown, MD)[71].

[4] = system: P. falciparum Dd2 Cytb V259L; test: SYBR Green ABS proliferation assay, NCGC00473217 selected clone F06; type: cell-based, Plasmodium falciparum; settings: Plasmodium falciparum
Protocol: as §1, §2, §3

[5] = system: P. berghei-ANKA-GFP-LucCON liver stage parasites in HepG2-A16-CD81EGFP cells; test: P. berghei liver stage Pb-Luc assay, Method 1 (UCSD, 1536-well); type: cell-based, Plasmodium berghei; settings: Plasmodium berghei; for activity at 1 µM / activity at 3 µM: 48 h, average of 2 wells, 1536-well plate; for activity at 1 µM: nominal 1 uM (10 mM stock), […] for 15 mM, 1.2 uM for 12 mM, 2 uM for 20 mM stock; for activity at 3 µM: nominal 3 uM (10 mM stock), 4.5 uM for 15 mM, 3.6 uM for 12 mM, 6 uM for 20 mM stock; for AC50: Method 1
[6] = system: Plasmodium falciparum Dd2 asexual blood stage parasites; test: microbe, parasite or virus in culture; design: species or system Plasmodium falciparum Dd2 in human erythrocytes; single determination (one 11-point concentration-response curve); settings: Plasmodium falciparum, DD2, Erythrocyte, 72 h; read-out: AC50
HepG2-A16-CD81EGFP cells = settings: average of 2 wells, repeat 2; for HepG2 viability signal, 1 uM, repeat 2: nominal 1 uM (10 mM stock), […] for 15 mM, 1.2 uM for 12 mM, 2 uM for 20 mM stock; for HepG2 viability signal, 3 uM, repeat 2: nominal 3 uM (10 mM stock), 4.5 uM for 15 mM, 3.6 uM for 12 mM, 6 uM for 20 mM stock
in vitro [7] = settings: human, HepG2-A16-CD81EGFP cells, uninfected
[8] = DD2, […], averaged from three independent replicates, top concentration 29 µM, read-out: Average AC50 (Log[M]), NCGC00374598 clone C11 (Cytb G131S) (converted)
[9] = DD2, […], averaged from three independent replicates, top concentration 29 µM, read-out: Average AC50 (Log[M]), NCGC00473217 clone F06 (Cytb V259L) (converted)
[10] = repeat 1, read-out: Pb-Luc signal, 1 uM, repeat 1
[11] = repeat 2, read-out: Pb-Luc signal, 1 uM, repeat 2
[12] = repeat 3, read-out: Pb-Luc signal, 1 uM, repeat 3
[13] = repeat 1, read-out: Pb-Luc signal, 3 uM, repeat 1
[14] = repeat 2, read-out: Pb-Luc signal, 3 uM, repeat 2
[15] = repeat 3, read-out: Pb-Luc signal, 3 uM, repeat 3

Row | Structure (SMILES) | Log AC50 (M) (HepG2) | CC50 at 48 h (in vitro [1]) | AC50 [3, 8] | also measured
1 | Cc1nc(N2CCC(NC(=O)c3cc4ccccc4[nH]3)CC2)cc(C(F)(F)F)n1 [NCGC00455533-01] | -4.4643 M | 34.3 µM |  | 
2 | Cc1ccc(NC(=O)CSc2n[nH]c(-c3ccccn3)n2)cc1 [MLS001223214-01] | -4.6143 M | 24.3 µM |  | 
3 | O=C(c1n[nH]c2c1CCCC2)N1CCC(n2cc(-c3nc(-c4ccccc4)no3)nn2)CC1 [NCGC00454851-01] | -4.5143 M | 30.6 µM |  | 
4 | O=C(N1CCCN(c2cc(-c3ccc(Cl)cc3)n[nH]2)CC1)C1(c2ccccc2)CC1 [NCGC00436184-01] | -4.3643 M | 43.2 µM |  | 
5 | CCCN1C(CC(C)C)=N[S+](=O)([O-])c2cc(N[S+](=O)([O-])c3ccc(Cl)s3)ccc21 [NCGC00521874-01] |  |  | 8.93e-07 M | AC50 [2]: 1.42e-06 M; AC50 [4, 9]: 7.1e-07 M
6 | Cc1cc(C)n(-c2nc3ccccc3c(=O)n2OCC#N)n1 [MLS001215162-01] | -4.9143 M | 12.2 µM |  | 
7 | CCN1C(=O)C2(CCN([S+](=O)([O-])c3cc(F)ccc3C)CC2)c2ccccc21 [NCGC00435872-01] | -4.4143 M | 38.5 µM |  | 
8 | O=C(CC1C(=O)NCCN1Cc1cccc(Oc2ccccc2)c1)NCc1ccco1 (stereo not drawn) [NCGC00439848-01] | -8.3643 M | 0.00432 µM |  | 
9 | O=C1CCN(Cc2ccc(F)cc2F)CCCC(c2nc(-c3cnccn3)no2)CCN1 (stereo not drawn) [NCGC00465975-01] | -4.9143 M | 12.2 µM |  | 
10 | O=C(Nc1ccc(Cl)cc1)N1CCC(c2nc(-c3ccccc3Cl)no2)CC1 [MLS000529331-01] | -4.4643 M | 34.3 µM |  | 
11 | CCC(C(=O)N1CCN(c2cc(-c3cccs3)n[nH]2)CC1)c1ccccc1 (stereo not drawn) [NCGC00436744-01] | -4.3643 M | 43.2 µM |  | 
12 | Fc1ccc(CN2CC[C@H](c3nc4ccc(C(F)(F)F)cc4[nH]3)C2)cc1F [NCGC00396703-01] | -4.3028 M | 49.8 µM |  | 
13 | CCN(CC)CCCNC(=O)c1ccc2c(c1)sc1nc(-c3ccc(C)cc3)cn12 [NCGC00121667-01] | -4.3643 M | 43.2 µM |  | 
14 | CCCN1C(CC(C)C)=N[S+](=O)([O-])c2cc(N[S+](=O)([O-])c3ccccc3C)ccc21 [NCGC00521140-01] |  |  |  | AC50 [4, 9]: 1e-05 M
15 | COc1ccc(N2CCN(c3cc(C4CC(N)C4)nc(N)n3)CC2(C)C)cc1 (stereo not drawn) [NCGC00422579-01] |  | > 57 µM |  | activity at 1 µM [5, 10]: 82.6%; activity at 1 µM [5, 11]: 91.8%; activity at 1 µM [5, 12]: 99.3%; activity at 3 µM [5, 13]: 76.6%; activity at 3 µM [5, 14]: 88.5%; activity at 3 µM [5, 15]: 81.6%; AC50 [6]: 2.99 µM; HepG2 viability signal, 1 uM, repeat 2 (HepG2-A16-CD81EGFP cells): 102.33%; HepG2 viability signal, 3 uM, repeat 2 (HepG2-A16-CD81EGFP cells): 97.69%; viability at 48 h, 1 µM (in vitro [7]): 103%; viability at 48 h, 3 µM (in vitro [7]): 102%
16 | Cc1ccc(-c2nn(-c3ccccc3)cc2CSC(=N)N)cc1 [MLS000572993-01] | -4.3643 M | 43.2 µM |  | 
17 | CCOC(=O)c1ccc(-c2ccc(/C=C(\C#N)c3nc4cc(C)ccc4[nH]3)o2)cc1 [NCGC00098928-01] | -4.3643 M | 43.2 µM |  | 
18 | CCc1nnc(NC(=O)c2cc(Cl)ccn2)s1 [MLS001175292-01] | -4.3643 M | 43.2 µM |  | 
19 | CN1C(CCl)Nc2cc(Cl)c([S+](N)(=O)[O-])cc2[S+]1(=O)[O-] (stereo not drawn) [NCGC00167446-03] |  |  | 3.17e-08 M | AC50 [2]: 2.82e-08 M; AC50 [4, 9]: 3.17e-08 M
20 | CCCN1C(CC(C)C)=N[S+](=O)([O-])c2cc(N[S+](=O)([O-])c3ccccc3)ccc21 [NCGC00521146-01] |  |  | 7.1e-06 M | AC50 [2]: 7.96e-06 M
21 | O=C(c1ccco1)N1CCCN(c2cc(-c3ccc(Br)cc3)n[nH]2)CC1 [NCGC00436196-01] | -4.3643 M | 43.2 µM |  | 
22 | Cc1nn2c(c1-c1ccccc1Oc1ccccc1)N(Cc1ccccc1O)CCC2 [NCGC00420455-01] |  | > 57 µM |  | activity at 1 µM [5, 10]: 75.6%; activity at 1 µM [5, 11]: 75%; activity at 1 µM [5, 12]: 78.3%; activity at 3 µM [5, 13]: 1.18%; activity at 3 µM [5, 14]: 4.89%; activity at 3 µM [5, 15]: 23.7%; AC50 ([5]; Hill fit, 50% of maximum activity response, read-out: AC50): 1410 nM; AC50 ([5]; log10 of molar AC50 from Hill fit, read-out: Log AC50 (converted)): 1410 nM; AC50 [6]: 4.85 µM; HepG2 viability signal, 1 uM, repeat 2 (HepG2-A16-CD81EGFP cells): 99.80%; HepG2 viability signal, 3 uM, repeat 2 (HepG2-A16-CD81EGFP cells): 116.91%; viability at 48 h, 1 µM (in vitro [7]): 104%; viability at 48 h, 3 µM (in vitro [7]): 115%
23 | CCCN1C(CC(C)C)=N[S+](=O)([O-])c2cc(NC(=O)C3CCOCC3)ccc21 [NCGC00521138-01] |  |  | 3.99e-06 M | AC50 [4, 9]: 1.22e-05 M
24 | CCCN1C(C)=N[S+](=O)([O-])c2cc(NC(=O)c3ccc(F)cc3)ccc21 [NCGC00522607-01] |  |  | 1.26e-06 M | AC50 [2]: 1.12e-06 M
25 | CCCN1C(CC(C)C)=N[S+](=O)([O-])c2cc(NC(=O)c3cccc(C#N)c3)ccc21 [NCGC00531772-01] |  |  |  | AC50 ([3]; DD2, cytochrome b mutant line, second value triple, c6, […], read-out: log AC50, mean (converted)): 2.67e-07 M; AC50 ([4]; DD2, cytochrome b mutant line, third value triple, c9, […], read-out: log AC50, mean (converted)): 8.93e-07 M
26 | CCCN1C(CC(C)C)=N[S+](=O)([O-])c2cc(NC(=O)C(=O)OCC)ccc21 [NCGC00521135-01] |  |  | 7.96e-06 M | AC50 [2]: 1.59e-05 M
27 | N[S+](=O)([O-])c1cc2c(cc1Cl)N=CN[S+]2(=O)[O-] [NCGC00015242-14] |  |  | 7.1e-07 M | AC50 [2]: 2e-06 M
28 | CCCN1C(C)=N[S+](=O)([O-])c2cc(NC(=O)c3cccs3)ccc21 [NCGC00522606-01] |  |  | 2e-06 M | AC50 [2]: 8.93e-06 M
29 | CCCN1C(CC(C)C)=N[S+](=O)([O-])c2cc(N[S+](=O)([O-])c3cc4ccccc4s3)ccc21 [NCGC00521156-01] |  |  | 1e-06 M | AC50 [2]: 1.26e-06 M
